Where a SMILES comes first, the peptide text is derived from it. [ ]: non-standard residue; d: D form. The star is where a group is joined. Oic = O=C(O)[C@@H]1C[C@@H]2CCCC[C@@H]2N1; Gly(octyl) = CCCCCCCC[C@H](N)C(=O)O; hTyr = N[C@@H](CCc1ccc(O)cc1)C(=O)O; AllylGly = C=CC[C@H](N)C(=O)O; Octanoyl = CCCCCCCC(=O)*; Dab = NCC[C@H](N)C(=O)O; Nlys = NCCCCNCC(=O)O
How the values were obtained:
Assay type in all cases: biochemical
[1] = biological target: T1, human neutrophil elastase (Homo sapiens, UniProt P08246); assay: Inhibition of human neutrophil elastase (hydrolysis of MeOSuc-AAPV-pNA); conditions: substrate MeOSuc-AAPV-pNA 0.3 mM, enzyme 10 nM, 37° C., pH 8; read-out: Human neutrophil elastase (hNE) IC50
T1 construct: purchased Serva Electrophoresis, Germany
T1 sequence (P08246 30-267): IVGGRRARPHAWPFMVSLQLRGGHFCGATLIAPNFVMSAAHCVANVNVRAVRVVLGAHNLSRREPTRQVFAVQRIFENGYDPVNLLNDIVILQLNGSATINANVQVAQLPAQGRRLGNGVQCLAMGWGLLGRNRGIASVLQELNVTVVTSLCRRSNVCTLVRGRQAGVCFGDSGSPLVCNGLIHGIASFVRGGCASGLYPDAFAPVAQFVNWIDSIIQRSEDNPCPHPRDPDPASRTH
Procedure: 2.2 Inhibition of Human Neutrophil Elastase
The ability of the peptides of the invention to inhibit the hydrolysis activity of human neutrophil elastase (Serva Electrophoresis, Germany) using the synthetic tetrapeptidic substrate MeOSuc-AAPV-pNA (Bachem, Switzerland) was determined as follows:
(§1) The above substrate (0.3 mM) and human neutrophil elastase (10 nM) were incubated at 37° C. with serial dilutions of the peptides (1% DMSO final) in assay buffer (50 mM Tris, pH 8, 300 mM NaCl, 0.01% Tween20). The release of pNA was followed by monitoring the change in absorbance at 405 nm for 30 minutes. Control assays with the same assay set-up as above, but without peptide, ran linearly. The dose-response data were fitted to the 4-parameter Hill equation providing the IC50 value using Graphpad (Prism 5).

[2] = biological target: T2, porcine pancreatic elastase (Sus scrofa, UniProt P00772); assay: Inhibition of porcine pancreatic elastase (hydrolysis of MeOSuc-AAA-pNA); conditions: for hNE/PPE selectivity: ratio of PPE IC50 to hNE IC50; for IC50: substrate MeOSuc-AAA-pNA 1 mM, enzyme 15 nM, 37° C., pH8, read-out: Porcine pancreatic elastase (PPE) IC50
T2 construct: purchased Sigma, USA
T2 sequence (P00772 27-266): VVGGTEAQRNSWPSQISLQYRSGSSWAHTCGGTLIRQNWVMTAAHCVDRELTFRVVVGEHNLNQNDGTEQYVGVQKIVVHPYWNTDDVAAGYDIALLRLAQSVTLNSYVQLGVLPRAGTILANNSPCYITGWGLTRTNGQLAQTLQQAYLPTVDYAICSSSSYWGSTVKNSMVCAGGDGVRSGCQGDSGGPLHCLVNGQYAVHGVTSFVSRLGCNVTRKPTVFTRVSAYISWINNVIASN
Procedure: 2.3 Inhibition of Porcine Pancreatic Elastase
The ability of the peptides of the invention to inhibit the hydrolysis activity of porcine pancreatic elastase (Sigma, USA) using the synthetic tripeptidic substrate MeOSuc-AAA-pNA (Bachem, Switzerland) was determined as follows:
as §1, with “(1” for “(0.3”, “porcine pancreatic” for “neutrophil”, “(15” for “(10”, “(0.5%” for “(1%”, “pH8, 100” for “pH 8, 300”

human proteinase 3 = biological target: T3, human proteinase 3 (Homo sapiens, UniProt P24158); assay: Inhibition of human proteinase 3 (substrate Boc-Ala-Ala-Nva-SBzl); conditions: for hNE/hPr3 selectivity: ratio of hPr3 IC50 to hNE IC50; for IC50: substrate Boc-Ala-Ala-Nva-SBzl 1 mM, enzyme 10 nM, 37° C., pH7.4, read-out: Human proteinase 3 (hPr3) IC50
T3 construct: purchased Elastin Products Company, USA
T3 sequence (P24158 28-248): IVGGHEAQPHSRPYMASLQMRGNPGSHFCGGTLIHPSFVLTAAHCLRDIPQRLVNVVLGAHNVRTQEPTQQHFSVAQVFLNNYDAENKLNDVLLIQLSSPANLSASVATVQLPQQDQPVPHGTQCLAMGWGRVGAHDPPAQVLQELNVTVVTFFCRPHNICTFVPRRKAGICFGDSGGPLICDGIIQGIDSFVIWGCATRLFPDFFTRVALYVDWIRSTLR
Procedure: 2.4 Inhibition of Human Proteinase 3
The inactivation of human proteinase 3 (Elastin Products Company, USA) by the peptides of the invention using synthetic tripeptidic substrate Boc-Ala-Ala-Nva-SBzl (Elastin Products Company, USA) was determined as follows:
as §1, with “(1 mM), 4,4′-dithiodipyridine (250 μM)” for “(0.3 mM)”, “proteinase 3” for “neutrophil elastase”, “(0.5%” for “(1%”, “pH7.4, 150” for “pH 8, 300”, “reaction process” for “release of pNA”, “340” for “405”

| Compound | IC50 [1] | hNE/PPE selectivity [2] | IC50 [2] | hNE/hPr3 selectivity (human proteinase 3) | IC50 (human proteinase 3) |
| --- | --- | --- | --- | --- | --- |
| CCCCCCCC[C@@H]1NC(=O)[C@H](C(C)C)NC(=O)[C@@H](CCCCN)NC(=O)[C@H]([C@@H](C)O)NC(=O)[C@H](CCCCN)NC(=O)[C@H](CCC(N)=O)NC(=O)[C@@H]2CCCN2C(=O)[C@@H]2CCCN2C(=O)[C@H]([C@@H](C)CC)NC(=O)[C@H](CO)NC(=O)[C@H](C)NC(=O)[C@H]([C@@H](C)O)NC(=O)[C@H](CCC(=O)O)NC1=O [Example 26, Cyclo(-OctGly-Glu-Thr-Ala-Ser-Ile-Pro-Pro-GI n-Lys-Thr-^DLys-Val-)] (cyclo([Gly(octyl)]ETASIPPQKT[dK]V)) | 10.6 nM | 4415 | 46.8 µM | 472 | 5 µM |
| CC[C@H](C)[C@@H]1NC(=O)[C@H](CO)NC(=O)[C@H](C)NC(=O)[C@H]([C@@H](C)O)NC(=O)[C@H](CCC(=O)O)NC(=O)[C@H](CCC(=O)N[C@@H](Cc2ccccc2)C(=O)O)NC(=O)[C@@H]2CCCN2C(=O)[C@H]2CCCN2C(=O)[C@H](Cc2ccc(O)cc2)NC(=O)[C@H](CCCCN)NC(=O)[C@H](CCC(N)=O)NC(=O)[C@@H]2CCCN2C(=O)[C@@H]2CCCN2C1=O [Example 18, Cyclo(-Glu(Phe)-Glu-Thr-Ala-Ser-Ile-Pro-Pro-Gln-Lys-Tyr-^DPro-Pro-)] (cyclo(E(Phe)ETASIPPQKY[dP]P)) | 15.9 nM | 4660 | 74.1 µM | 2906 | 46.2 µM |
| CCCCCCCC[C@@H]1NC(=O)[C@H](C(C)C)NC(=O)[C@@H](CO)NC(=O)[C@H]([C@@H](C)O)NC(=O)[C@H](CCCCN)NC(=O)[C@H](CCC(N)=O)NC(=O)[C@@H]2CCCN2C(=O)[C@@H]2CCCN2C(=O)[C@H]([C@@H](C)CC)NC(=O)[C@H](CO)NC(=O)[C@H](C)NC(=O)[C@H]([C@@H](C)O)NC(=O)[C@H](CCC(=O)O)NC1=O [Example 30, Cyclo(-OctGly-Glu-Thr-Ala-Ser-Ile-Pro-Pro-Gln-Lys-Thr-^DSer-Val-)] (cyclo([Gly(octyl)]ETASIPPQKT[dS]V)) | 12 nM | 4267 | 51.2 µM | 1192 | 14.3 µM |
| CCCCCCCC(=O)NCC[C@@H]1NC(=O)[C@@H]2CCCN2C(=O)[C@H]2CCCN2C(=O)[C@H]([C@@H](C)O)NC(=O)[C@H](CCCCN)NC(=O)[C@H](CCC(N)=O)NC(=O)[C@@H]2CCCN2C(=O)[C@@H]2CCCN2C(=O)[C@H]([C@@H](C)CC)NC(=O)[C@H](CO)NC(=O)[C@H](C)NC(=O)[C@H]([C@@H](C)O)NC(=O)[C@H](CCC(=O)O)NC1=O [Example 15, Cyclo(-Dab(Octanoyl)-Glu-Thr-Ala-Ser-Ile-Pro-Pro-Gln-Lys-Thr-^DPro-Pro-)] (cyclo([Dab](Octanoyl)ETASIPPQKT[dP]P)) | 19.1 nM | 4859 | 92.8 µM | 2366 | 45.2 µM |
| CCCCCCCC[C@@H]1NC(=O)[C@@H]2CCCN2C(=O)[C@H]2CCCN2C(=O)[C@H]([C@@H](C)O)NC(=O)[C@H](CCCCN)NC(=O)[C@H](CCC(N)=O)NC(=O)[C@@H]2CCCN2C(=O)CN(CCCCN)C(=O)[C@H]([C@@H](C)CC)NC(=O)[C@H](CO)NC(=O)[C@H](C)NC(=O)[C@H]([C@@H](C)O)NC(=O)[C@H](CCC(=O)O)NC1=O [Example 33, Cyclo(-OctGly-Glu-Thr-Ala-Ser-Ile-Nlys-Pro-Gln-Lys-Thr-^DPro-Pro-)] (cyclo([Gly(octyl)]ETASI[Nlys]PQKT[dP]P)) | 7 nM | 1186 | 8.3 µM | 871 | 6.1 µM |
| CCCCCCCC[C@@H]1NC(=O)[C@H](Cc2ccc(O)cc2)NC(=O)[C@@H](Cc2ccc(O)cc2)NC(=O)[C@H]([C@@H](C)O)NC(=O)[C@H](CCCCN)NC(=O)[C@H](CCC(N)=O)NC(=O)[C@@H]2CCCN2C(=O)[C@@H]2CCCN2C(=O)[C@H]([C@@H](C)CC)NC(=O)[C@H](CO)NC(=O)[C@H](C)NC(=O)[C@H]([C@@H](C)O)NC(=O)[C@H](CCC(=O)O)NC1=O [Example 24, Cyclo(-OctGly-Glu-Thr-Ala-Ser-Ile-Pro-Pro-Gln-Lys-Thr-^DTyr-Tyr-)] (cyclo([Gly(octyl)]ETASIPPQKT[dY]Y)) | 11.6 nM | 1112 | 12.9 µM | 664 | 7.7 µM |
| C=CC[C@@H]1NC(=O)[C@H]([C@@H](C)O)NC(=O)[C@H](CCC(=O)O)NC(=O)[C@H](CCC(=O)N[C@@H](Cc2ccccc2)C(=O)O)NC(=O)[C@@H]2CCCN2C(=O)[C@H]2CCCN2C(=O)[C@H]([C@@H](C)O)NC(=O)[C@H](CCCCN)NC(=O)[C@H](CCC(N)=O)NC(=O)[C@@H]2CCCN2C(=O)[C@@H]2CCCN2C(=O)[C@H]([C@@H](C)CC)NC(=O)[C@H](CO)NC1=O [Example 19, Cyclo(-Glu(Phe)-Glu-Thr-AllylGly-Ser-Ile-Pro-Pro-Gln-Lys-Thr-^DPro-Pro-)] (cyclo(E(Phe)ET[AllylGly]SIPPQKT[dP]P)) | 33 nM | >3030 | > 100 µM | >3030 | > 100 µM |

Further lines, results first:

| IC50 [1] | hNE/PPE selectivity [2] | IC50 [2] | hNE/hPr3 selectivity (human proteinase 3) | IC50 (human proteinase 3) | Compound |
| --- | --- | --- | --- | --- | --- |
| 2.7 nM | >237037 | > 100 µM | >237037 | > 100 µM | CC[C@H](C)[C@@H]1NC(=O)[C@H](CO)NC(=O)[C@H](C)NC(=O)[C@H]([C@@H](C)O)NC(=O)[C@H](CCc2ccc(O)cc2)NC(=O)[C@H](CCCNC(=N)N)NC(=O)[C@H](CCC(=O)O)NC(=O)[C@H]2CCCN2C(=O)[C@H]([C@@H](C)O)NC(=O)[C@H](CCCCN)NC(=O)[C@H](CCC(N)=O)NC(=O)[C@@H]2C[C@@H]3CCCC[C@@H]3N2C(=O)[C@@H]2CCCN2C1=O [Example 43, Cyclo(-Arg-hTyr-Thr-Ala-Ser-Ile-Pro-Oic-Gln-Lys-Thr-^DPro-Glu-)] (cyclo(R[hTyr]TASIP[Oic]QKT[dP]E)) |
| 9.6 nM | >10417 | > 100 µM | >10417 | > 100 µM | CC[C@H](C)[C@@H]1NC(=O)[C@H](CO)NC(=O)[C@H](C)NC(=O)[C@H]([C@@H](C)O)NC(=O)[C@H](C(C)C)NC(=O)[C@H](CCCNC(=N)N)NC(=O)[C@H](CCC(=O)O)NC(=O)[C@H]2CCCN2C(=O)[C@H]([C@@H](C)O)NC(=O)[C@H](CCCCN)NC(=O)[C@H](CCC(N)=O)NC(=O)[C@@H]2C[C@@H]3CCCC[C@@H]3N2C(=O)[C@@H]2CCCN2C1=O [Example 44, Cyclo(-Arg-Val-Thr-Ala-Ser-Ile-Pro-Oic-Gln-Lys-Thr-^DPro-Glu-)] (cyclo(RVTASIP[Oic]QKT[dP]E)) |
| 12 nM | 321 | 3.85 µM | 372 | 4.46 µM | CCCCCCCC[C@@H]1NC(=O)[C@@H]2C[C@@H]3CCCC[C@@H]3N2C(=O)[C@H]2CCCN2C(=O)[C@H]([C@@H](C)O)NC(=O)[C@H](CCCCN)NC(=O)[C@H](CCC(N)=O)NC(=O)[C@@H]2CCCN2C(=O)[C@@H]2CCCN2C(=O)[C@H]([C@@H](C)CC)NC(=O)[C@H](CO)NC(=O)[C@H](C)NC(=O)[C@H]([C@@H](C)O)NC(=O)[C@H](CCC(=O)O)NC1=O [Example 6, Cyclo(-OctGly-Glu-Thr-Ala-Ser-Ile-Pro-Pro-Gln-Lys-Thr-^DPro-Oic-)] (cyclo([Gly(octyl)]ETASIPPQKT[dP][Oic])) |

— patent US10273267B2, “Beta-hairpin peptidomimetics as selective elastase inhibitors” (POLYPHOR AG, priority 2013, dated 2019)
